The structures appear in SMILES notation.

This note sets out measurements from article PMC9851200, “Multiparameter phenotypic screening for endogenous TFEB and TFE3 translocation identifies novel chemical series modulating lysosome function” (Autophagy, 2022).

Holding throughout (type): binding
Assay [1] concerns the target T1, kinases (KINOMEscan panel) (Homo sapiens, UniProt P33981).
T1 sequence (P33981 1-857): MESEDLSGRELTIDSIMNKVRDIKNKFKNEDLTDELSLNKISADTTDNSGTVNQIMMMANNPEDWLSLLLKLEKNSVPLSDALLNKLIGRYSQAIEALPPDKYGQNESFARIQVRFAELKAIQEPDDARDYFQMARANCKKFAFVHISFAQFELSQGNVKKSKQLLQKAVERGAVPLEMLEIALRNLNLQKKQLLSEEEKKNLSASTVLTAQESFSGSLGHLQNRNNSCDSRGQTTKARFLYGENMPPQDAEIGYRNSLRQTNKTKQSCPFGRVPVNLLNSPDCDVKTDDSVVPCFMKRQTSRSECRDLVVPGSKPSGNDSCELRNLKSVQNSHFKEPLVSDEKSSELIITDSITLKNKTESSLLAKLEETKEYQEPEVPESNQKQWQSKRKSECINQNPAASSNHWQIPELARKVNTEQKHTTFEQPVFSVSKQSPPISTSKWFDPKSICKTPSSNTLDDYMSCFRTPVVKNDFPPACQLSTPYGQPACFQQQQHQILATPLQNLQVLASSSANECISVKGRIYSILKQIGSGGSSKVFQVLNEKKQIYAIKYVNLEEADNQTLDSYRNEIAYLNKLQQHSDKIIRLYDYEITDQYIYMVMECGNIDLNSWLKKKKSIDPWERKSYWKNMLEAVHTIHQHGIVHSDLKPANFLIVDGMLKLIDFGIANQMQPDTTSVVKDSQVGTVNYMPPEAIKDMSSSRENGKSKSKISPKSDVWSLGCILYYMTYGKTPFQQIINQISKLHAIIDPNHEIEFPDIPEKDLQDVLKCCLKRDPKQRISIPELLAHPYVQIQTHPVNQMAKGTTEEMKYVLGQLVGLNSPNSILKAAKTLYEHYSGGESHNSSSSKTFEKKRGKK
The note with it: NEW KINOMEscan.

The target of assay [2] is kinases (KINOMEscan panel) (Homo sapiens, UniProt Q9HAZ1). Particulars: kinase CLK4; NEW KINOMEscan.
Sequence of kinases (KINOMEscan panel) (Homo sapiens, UniProt Q9HAZ1) (Q9HAZ1 whole entry): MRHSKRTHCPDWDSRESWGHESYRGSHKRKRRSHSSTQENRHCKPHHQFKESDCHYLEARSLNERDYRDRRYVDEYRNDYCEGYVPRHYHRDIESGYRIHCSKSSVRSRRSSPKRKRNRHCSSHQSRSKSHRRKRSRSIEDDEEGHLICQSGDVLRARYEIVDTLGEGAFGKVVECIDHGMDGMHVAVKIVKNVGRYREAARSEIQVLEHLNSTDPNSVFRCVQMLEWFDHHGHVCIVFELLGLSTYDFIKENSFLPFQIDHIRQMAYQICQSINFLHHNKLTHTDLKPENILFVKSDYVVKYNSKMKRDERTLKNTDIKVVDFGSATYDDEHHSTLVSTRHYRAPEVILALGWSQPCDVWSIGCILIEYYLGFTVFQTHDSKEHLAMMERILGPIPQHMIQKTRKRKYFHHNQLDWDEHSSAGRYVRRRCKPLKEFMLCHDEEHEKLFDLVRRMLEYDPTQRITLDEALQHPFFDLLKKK
Assay [3] concerns the target kinases (KINOMEscan panel) (Homo sapiens, UniProt Q8IU85). Particulars: kinase CAMK1D; NEW KINOMEscan.
For assay [4], the target named is T2, kinases (KINOMEscan panel) (Homo sapiens, UniProt Q02156).
T2 sequence (Q02156 1-737): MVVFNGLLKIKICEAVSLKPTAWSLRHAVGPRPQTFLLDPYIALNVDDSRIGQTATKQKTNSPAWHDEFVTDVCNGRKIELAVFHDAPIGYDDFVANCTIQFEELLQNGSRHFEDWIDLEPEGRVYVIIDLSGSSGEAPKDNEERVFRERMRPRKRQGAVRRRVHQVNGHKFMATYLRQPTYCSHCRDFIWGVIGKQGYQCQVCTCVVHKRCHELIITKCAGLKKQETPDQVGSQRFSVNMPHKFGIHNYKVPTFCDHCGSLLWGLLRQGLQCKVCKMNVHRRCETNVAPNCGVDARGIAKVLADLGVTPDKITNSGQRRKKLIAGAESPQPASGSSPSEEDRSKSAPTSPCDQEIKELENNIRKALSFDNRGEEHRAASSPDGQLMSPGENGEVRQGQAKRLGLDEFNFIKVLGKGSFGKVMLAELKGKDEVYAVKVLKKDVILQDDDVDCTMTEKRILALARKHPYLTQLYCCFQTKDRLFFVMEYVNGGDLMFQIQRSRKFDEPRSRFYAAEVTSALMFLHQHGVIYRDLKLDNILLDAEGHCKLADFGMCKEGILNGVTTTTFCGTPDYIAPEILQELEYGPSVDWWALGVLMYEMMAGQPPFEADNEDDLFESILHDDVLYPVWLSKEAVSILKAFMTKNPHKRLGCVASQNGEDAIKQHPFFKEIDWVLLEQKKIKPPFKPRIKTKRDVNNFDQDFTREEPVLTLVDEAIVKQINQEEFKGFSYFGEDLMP
The note with it: kinase PRKCE; NEW KINOMEscan.

Assay [5] addresses kinases (KINOMEscan panel) (Homo sapiens, UniProt P15056). The note with it: BRAF; NEW KINOMEscan.
Assay [6] addresses kinases (KINOMEscan panel) (Homo sapiens, UniProt P15056, V600E). Particulars: kinase BRAF(V600E); NEW KINOMEscan.
The target in assay [7] is T3, kinases (KINOMEscan panel) (Homo sapiens, UniProt P78356).
T3 sequence (P78356 1-416): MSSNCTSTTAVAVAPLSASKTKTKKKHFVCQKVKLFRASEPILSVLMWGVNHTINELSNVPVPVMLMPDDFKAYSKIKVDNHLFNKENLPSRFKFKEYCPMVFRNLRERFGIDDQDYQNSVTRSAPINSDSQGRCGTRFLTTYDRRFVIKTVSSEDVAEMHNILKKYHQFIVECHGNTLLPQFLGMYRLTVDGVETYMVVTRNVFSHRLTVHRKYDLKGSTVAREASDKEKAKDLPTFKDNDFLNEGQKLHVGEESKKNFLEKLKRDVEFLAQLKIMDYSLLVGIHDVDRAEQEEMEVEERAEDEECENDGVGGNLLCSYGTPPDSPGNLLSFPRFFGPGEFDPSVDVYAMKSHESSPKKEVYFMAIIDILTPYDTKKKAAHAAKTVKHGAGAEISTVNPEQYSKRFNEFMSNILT
Particulars: PIP4K2B; NEW KINOMEscan.

Assay [8] has as its target kinases (KINOMEscan panel) (Homo sapiens, UniProt Q2M2I8). The note with it: AAK1; NEW KINOMEscan.

Sequence of kinases (KINOMEscan panel) (Homo sapiens, UniProt P15056, V600E) (P15056 whole entry V600E): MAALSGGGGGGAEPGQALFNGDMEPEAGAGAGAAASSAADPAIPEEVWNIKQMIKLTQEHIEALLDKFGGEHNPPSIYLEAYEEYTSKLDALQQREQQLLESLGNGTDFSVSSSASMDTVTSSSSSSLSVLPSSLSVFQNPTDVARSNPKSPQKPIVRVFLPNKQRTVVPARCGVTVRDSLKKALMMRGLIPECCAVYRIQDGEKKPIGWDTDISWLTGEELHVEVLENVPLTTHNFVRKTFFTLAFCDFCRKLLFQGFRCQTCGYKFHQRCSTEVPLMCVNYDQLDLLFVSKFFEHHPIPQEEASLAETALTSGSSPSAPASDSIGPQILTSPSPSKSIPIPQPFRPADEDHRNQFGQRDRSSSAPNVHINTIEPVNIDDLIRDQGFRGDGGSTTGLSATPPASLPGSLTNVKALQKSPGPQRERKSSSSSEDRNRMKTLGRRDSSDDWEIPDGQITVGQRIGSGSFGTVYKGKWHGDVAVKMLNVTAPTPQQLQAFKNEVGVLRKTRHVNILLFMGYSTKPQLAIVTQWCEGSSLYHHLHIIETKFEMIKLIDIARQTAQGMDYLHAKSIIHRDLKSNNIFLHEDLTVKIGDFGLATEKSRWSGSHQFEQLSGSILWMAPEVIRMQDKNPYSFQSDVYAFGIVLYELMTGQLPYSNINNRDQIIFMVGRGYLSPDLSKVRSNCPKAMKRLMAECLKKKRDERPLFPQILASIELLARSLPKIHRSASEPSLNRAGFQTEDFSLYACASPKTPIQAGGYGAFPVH
Sequence of kinases (KINOMEscan panel) (Homo sapiens, UniProt P15056) (P15056 whole entry): as the sequence (P15056 whole entry V600E) above, with E600V counted along it
Sequence of kinases (KINOMEscan panel) (Homo sapiens, UniProt Q2M2I8) (Q2M2I8 whole entry): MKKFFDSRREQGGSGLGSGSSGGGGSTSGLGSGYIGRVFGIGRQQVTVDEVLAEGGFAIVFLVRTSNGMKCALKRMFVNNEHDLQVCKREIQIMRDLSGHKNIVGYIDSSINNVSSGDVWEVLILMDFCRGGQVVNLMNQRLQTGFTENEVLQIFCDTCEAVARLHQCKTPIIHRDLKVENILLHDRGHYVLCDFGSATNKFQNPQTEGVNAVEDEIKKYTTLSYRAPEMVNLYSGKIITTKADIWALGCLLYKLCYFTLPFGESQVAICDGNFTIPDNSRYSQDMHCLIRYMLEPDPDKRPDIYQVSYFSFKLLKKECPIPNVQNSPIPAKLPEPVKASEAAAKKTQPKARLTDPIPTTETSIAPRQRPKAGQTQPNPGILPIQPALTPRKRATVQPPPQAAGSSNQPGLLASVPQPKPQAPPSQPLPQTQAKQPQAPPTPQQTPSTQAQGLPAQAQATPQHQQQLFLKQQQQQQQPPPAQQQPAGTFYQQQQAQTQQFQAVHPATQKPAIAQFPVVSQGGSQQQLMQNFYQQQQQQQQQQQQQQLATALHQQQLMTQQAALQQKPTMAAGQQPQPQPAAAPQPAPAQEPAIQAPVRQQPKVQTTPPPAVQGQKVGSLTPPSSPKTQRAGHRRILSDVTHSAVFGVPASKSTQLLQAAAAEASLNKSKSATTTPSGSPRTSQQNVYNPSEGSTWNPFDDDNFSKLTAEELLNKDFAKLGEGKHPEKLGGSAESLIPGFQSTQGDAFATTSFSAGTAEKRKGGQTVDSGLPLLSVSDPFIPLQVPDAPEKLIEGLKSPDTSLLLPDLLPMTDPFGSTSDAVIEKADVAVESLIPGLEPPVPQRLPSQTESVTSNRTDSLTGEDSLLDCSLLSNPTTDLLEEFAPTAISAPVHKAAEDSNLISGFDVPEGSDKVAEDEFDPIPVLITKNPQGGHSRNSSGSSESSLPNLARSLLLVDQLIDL
Sequence of kinases (KINOMEscan panel) (Homo sapiens, UniProt Q8IU85) (Q8IU85 whole entry): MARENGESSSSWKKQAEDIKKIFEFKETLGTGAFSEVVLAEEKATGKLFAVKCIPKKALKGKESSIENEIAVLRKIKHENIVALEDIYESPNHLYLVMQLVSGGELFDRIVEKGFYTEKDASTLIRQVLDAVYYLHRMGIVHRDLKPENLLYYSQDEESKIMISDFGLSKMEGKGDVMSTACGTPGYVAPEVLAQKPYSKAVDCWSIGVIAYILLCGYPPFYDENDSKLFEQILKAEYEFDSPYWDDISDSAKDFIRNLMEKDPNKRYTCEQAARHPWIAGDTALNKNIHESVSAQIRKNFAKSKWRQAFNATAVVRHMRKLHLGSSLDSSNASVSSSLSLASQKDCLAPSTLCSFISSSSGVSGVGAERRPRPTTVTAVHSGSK

`Cc1cccc(-c2nc(N(C)c3ccc4ncsc4c3)c3ccccc3n2)n1` [NK-161]: the “KINOMEscan TTK” value in assay [1] worked out at 26. Also, the “KINOMEscan CLK4” value in assay [2] stood at 10. Moreover, in assay [3], the “KINOMEscan CAMK1D” value amounted to 0. Also, in assay [4], the “KINOMEscan PRKCE” value was 7. The “KINOMEscan BRAF” value in assay [5] was 0. Moreover, the “KINOMEscan BRAF(V600E)” value in assay [6] is reported as 0. In addition, the “KINOMEscan PIP4K2B” value in assay [7] is recorded as 0. Moreover, the “KINOMEscan AAK1” value in assay [8] turned out to be 5.
As for `Cc1cccc(-c2nc(Nc3ccc4nn(C)cc4c3)c3ccccc3n2)n1` [NK167], the “KINOMEscan TTK” value in assay [1] came to 17. Moreover, in assay [2], the “KINOMEscan CLK4” value stood at 22. For the same compound, the “KINOMEscan CAMK1D” value in assay [3] was determined as 0. Besides, the “KINOMEscan PRKCE” value in assay [4] stood at 0. Moreover, in assay [5], the “KINOMEscan BRAF” value is 0. In addition, in assay [6], the “KINOMEscan BRAF(V600E)” value turned out to be 0. Moreover, the “KINOMEscan PIP4K2B” value in assay [7] was determined as 0. For the same compound, the “KINOMEscan AAK1” value in assay [8] is reported as 1.
